The record followed here is US20230033224A1, “CICLESONIDE FOR AMELIORATING QUALITY OF LIFE (QOL) IN EQUINES” (Boehringer Ingelheim Vetmedica GmbH, priority 2020, published 2023).

The experiment concerns client-owned horses. In words: Owner assessment of change in quality of life (QOL) in a randomized, double-blinded, placebo-controlled clinical study. The format is in vivo, horse. From the text:
The amelioration of the QOL in equines can be measured by an assessment, which can be performed for example by the owner or the veterinarian or by an animal care taker or by any other person, preferably by the owner. The owners of the horses are asked to assess the quality of life of their horses over a certain period of time, e.g. several days, such as 10, 14 or 21 days, compared to a reference time point, e.g. day 0. For assessment of QOL the owner is asked to consider certain QOL parameters such as attitude, energy level, human interactions, general behavior using a rating scheme. This assessment preferably relates to a certain period of time such as for example the last 24 hours in comparison to a previous point in time for example day 0. One possible rating scheme is to ask whether QOL has improved, stayed the same or worsened compared to day 0.
The study is conducted as a multicenter prospective, randomized, double-blinded, placebo-controlled clinical study with parallel group design according to Good Clinical Practice (GCP) guidelines with client-owned horses.
Horses are examined before (Day 0) and at the end of treatment with the study drug (Day 10±1) by the study investigators. Physical examination, efficacy and QOL assessment, as well as blood sample collection is performed during the visits. The owners of included horses are also contacted by telephone on Day 5. […]

For `CC(C)C(=O)OCC(=O)[C@@]12O[C@H](C3CCCCC3)OC1CC1C3CCC4=CC(=O)C=C[C@]4(C)C3[C@@H](O)C[C@@]12C` (stereo partly drawn) [ciclosenide, (1 ip,16a)-16,17-[[(R)-Cyclohexylmethylene]bis(oxy)]-11-hydroxy-21-(2-methyl-1-oxopropoxy)pregna-1,4-diene-3,20-dione], where the note is “after 10(±1) days of treatment, 8 actuations twice daily for 5 days, then 12 actuations once daily for 5 days”, the “percentage of owners acknowledging an improvement in their horse's quality of life compared to Day 0” value was 69.33%. Further, the “percentage of owners reporting that the quality of life of their horse improved compared to Day 0” value (after five days of treatment, inhaled via EquiHaler, 8 actuations (343 μg each) twice daily) is on record as 60.19%.
